{
  "source": "paper PMC8800111",
  "about": "(The Journal of Biological Chemistry, 2021)",
  "format_in_all_cases": "cell-based",
  "key": {"[1]": {"molecular_target": "proteins of U3A human fibrosarcoma cells (4462 proteins detected) (Homo sapiens, UniProt P09972)", "sequence (P09972 whole entry)": "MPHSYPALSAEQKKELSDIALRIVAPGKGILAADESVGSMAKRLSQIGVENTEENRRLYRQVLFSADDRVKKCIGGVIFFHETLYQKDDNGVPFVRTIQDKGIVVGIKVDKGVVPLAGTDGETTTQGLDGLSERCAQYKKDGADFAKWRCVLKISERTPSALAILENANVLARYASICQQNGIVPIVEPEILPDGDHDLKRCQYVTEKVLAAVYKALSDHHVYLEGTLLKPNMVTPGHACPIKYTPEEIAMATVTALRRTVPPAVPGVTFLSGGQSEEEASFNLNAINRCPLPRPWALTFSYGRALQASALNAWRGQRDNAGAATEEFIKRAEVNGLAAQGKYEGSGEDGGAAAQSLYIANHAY", "conditions": "protein ALDOC, U3A cells"}, "[2]": {"molecular_target": "proteins of U3A human fibrosarcoma cells (4462 proteins detected) (Homo sapiens, UniProt Q9NTX5)", "conditions": "protein ECHDC1; U3A cells"}, "[3]": {"molecular_target": "proteins of U3A human fibrosarcoma cells (4462 proteins detected) (Homo sapiens, UniProt Q15814)", "sequence (Q15814 whole entry)": "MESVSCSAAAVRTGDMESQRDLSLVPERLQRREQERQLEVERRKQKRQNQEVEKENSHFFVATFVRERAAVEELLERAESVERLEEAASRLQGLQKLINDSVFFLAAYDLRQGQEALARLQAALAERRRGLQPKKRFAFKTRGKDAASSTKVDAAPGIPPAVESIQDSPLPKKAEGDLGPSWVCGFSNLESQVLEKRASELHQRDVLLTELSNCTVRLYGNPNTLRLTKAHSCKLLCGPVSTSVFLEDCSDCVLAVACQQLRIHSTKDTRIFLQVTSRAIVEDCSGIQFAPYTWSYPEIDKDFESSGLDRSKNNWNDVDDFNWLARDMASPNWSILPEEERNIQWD", "conditions": "protein TBCC; U3A cells"}, "[4]": {"molecular_target": "proteins of U3A human fibrosarcoma cells (4462 proteins detected) (Homo sapiens, UniProt Q9Y2P8)", "conditions": "protein RCL1; U3A cells"}, "[5]": {"molecular_target": "proteins of U3A human fibrosarcoma cells (4462 proteins detected) (Homo sapiens, UniProt Q9H6E4)", "conditions": "protein CCDC134; U3A, 10 μM, 2 h"}, "[6]": {"molecular_target": "proteins of U3A human fibrosarcoma cells (4462 proteins detected) (Homo sapiens, UniProt Q9H6T3)", "conditions": "protein RPAP3; soluble abundance after heat, U3A cells"}, "[7]": {"molecular_target": "proteins of U3A human fibrosarcoma cells (4462 proteins detected) (Homo sapiens, UniProt Q15599)", "sequence (Q15599 whole entry)": "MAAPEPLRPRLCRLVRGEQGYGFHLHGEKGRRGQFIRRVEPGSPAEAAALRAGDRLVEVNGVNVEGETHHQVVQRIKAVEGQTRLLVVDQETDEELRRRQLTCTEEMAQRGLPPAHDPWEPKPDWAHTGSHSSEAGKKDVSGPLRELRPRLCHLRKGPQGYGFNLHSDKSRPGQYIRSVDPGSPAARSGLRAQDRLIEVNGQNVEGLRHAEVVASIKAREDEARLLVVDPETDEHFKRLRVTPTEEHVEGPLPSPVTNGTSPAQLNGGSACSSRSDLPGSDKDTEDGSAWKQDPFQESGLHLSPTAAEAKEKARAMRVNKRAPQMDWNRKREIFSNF", "conditions": "protein SLC9A3R2, U3A cells"}, "[8]": {"molecular_target": "proteins of U3A human fibrosarcoma cells (4462 proteins detected) (Homo sapiens, UniProt Q8TEP8)", "sequence (Q8TEP8 whole entry)": "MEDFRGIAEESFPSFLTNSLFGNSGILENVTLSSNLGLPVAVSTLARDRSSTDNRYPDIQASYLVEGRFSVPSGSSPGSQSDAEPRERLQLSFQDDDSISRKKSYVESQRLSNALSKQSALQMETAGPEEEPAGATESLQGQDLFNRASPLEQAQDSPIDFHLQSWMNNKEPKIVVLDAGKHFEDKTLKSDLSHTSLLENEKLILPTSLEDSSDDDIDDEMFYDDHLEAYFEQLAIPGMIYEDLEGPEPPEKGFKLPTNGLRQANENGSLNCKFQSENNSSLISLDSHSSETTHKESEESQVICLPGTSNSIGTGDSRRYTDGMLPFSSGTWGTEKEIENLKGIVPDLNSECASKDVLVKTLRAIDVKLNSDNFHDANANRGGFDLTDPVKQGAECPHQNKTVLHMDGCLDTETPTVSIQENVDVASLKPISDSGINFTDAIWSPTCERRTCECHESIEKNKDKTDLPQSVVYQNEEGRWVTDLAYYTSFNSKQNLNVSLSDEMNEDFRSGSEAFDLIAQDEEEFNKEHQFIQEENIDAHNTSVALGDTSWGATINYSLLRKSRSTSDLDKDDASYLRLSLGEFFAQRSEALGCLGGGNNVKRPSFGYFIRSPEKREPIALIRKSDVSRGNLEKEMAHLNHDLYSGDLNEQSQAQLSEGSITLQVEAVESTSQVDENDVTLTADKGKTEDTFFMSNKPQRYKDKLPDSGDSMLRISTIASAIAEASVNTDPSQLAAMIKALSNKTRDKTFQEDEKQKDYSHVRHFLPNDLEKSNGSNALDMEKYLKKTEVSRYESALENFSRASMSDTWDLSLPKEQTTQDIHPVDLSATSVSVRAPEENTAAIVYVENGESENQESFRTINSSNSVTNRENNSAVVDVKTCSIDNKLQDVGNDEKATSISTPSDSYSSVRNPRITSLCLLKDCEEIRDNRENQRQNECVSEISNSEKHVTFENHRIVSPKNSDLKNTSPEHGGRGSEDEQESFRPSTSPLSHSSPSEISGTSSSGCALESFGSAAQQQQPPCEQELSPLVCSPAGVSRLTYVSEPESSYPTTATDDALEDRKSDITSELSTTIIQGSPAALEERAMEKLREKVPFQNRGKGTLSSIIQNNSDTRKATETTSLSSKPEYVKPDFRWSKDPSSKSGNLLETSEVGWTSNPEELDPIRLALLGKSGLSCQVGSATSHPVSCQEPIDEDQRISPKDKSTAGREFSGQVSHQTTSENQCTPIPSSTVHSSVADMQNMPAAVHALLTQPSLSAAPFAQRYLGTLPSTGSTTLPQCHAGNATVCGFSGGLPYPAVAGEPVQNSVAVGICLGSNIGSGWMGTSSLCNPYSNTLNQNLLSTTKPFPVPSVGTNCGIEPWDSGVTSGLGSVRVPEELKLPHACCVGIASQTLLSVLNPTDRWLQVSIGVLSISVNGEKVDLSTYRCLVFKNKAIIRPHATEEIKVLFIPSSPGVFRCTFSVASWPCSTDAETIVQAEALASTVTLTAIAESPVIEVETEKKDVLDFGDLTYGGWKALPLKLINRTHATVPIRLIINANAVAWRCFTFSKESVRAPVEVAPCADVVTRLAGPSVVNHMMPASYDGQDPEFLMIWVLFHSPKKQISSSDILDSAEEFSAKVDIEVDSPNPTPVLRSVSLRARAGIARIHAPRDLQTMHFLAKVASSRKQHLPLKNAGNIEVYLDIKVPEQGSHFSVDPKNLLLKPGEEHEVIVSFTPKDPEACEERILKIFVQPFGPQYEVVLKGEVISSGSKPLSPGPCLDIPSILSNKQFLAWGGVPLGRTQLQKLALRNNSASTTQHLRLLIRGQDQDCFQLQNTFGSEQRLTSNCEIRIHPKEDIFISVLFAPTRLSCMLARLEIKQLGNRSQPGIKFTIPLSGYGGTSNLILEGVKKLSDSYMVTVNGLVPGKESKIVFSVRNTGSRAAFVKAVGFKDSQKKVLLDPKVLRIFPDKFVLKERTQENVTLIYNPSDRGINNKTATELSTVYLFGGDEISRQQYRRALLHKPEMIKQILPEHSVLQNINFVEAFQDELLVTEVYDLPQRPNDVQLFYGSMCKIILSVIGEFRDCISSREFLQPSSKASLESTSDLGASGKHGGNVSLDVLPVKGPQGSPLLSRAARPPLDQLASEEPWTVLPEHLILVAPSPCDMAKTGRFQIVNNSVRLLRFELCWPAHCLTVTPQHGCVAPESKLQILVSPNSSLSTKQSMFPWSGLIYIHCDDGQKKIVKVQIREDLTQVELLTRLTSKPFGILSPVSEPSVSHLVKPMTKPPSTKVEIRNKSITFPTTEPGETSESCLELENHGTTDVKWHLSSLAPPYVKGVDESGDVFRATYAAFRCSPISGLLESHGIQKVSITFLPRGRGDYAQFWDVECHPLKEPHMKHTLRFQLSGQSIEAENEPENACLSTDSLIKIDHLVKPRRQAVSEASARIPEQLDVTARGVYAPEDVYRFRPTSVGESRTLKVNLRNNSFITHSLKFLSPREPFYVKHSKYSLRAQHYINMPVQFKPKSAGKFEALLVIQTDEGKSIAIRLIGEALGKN", "conditions": "protein CEP192; U3A, 10 μM, 2 h"}, "[9]": {"molecular_target": "proteins of U3A human fibrosarcoma cells (4462 proteins detected) (Homo sapiens, UniProt Q9BUL8)", "conditions": "protein PDCD10; soluble abundance after heat, U3A cells"}, "[10]": {"molecular_target": "proteins of U3A human fibrosarcoma cells (4462 proteins detected) (Homo sapiens, UniProt Q9NWT1)", "sequence (Q9NWT1 whole entry)": "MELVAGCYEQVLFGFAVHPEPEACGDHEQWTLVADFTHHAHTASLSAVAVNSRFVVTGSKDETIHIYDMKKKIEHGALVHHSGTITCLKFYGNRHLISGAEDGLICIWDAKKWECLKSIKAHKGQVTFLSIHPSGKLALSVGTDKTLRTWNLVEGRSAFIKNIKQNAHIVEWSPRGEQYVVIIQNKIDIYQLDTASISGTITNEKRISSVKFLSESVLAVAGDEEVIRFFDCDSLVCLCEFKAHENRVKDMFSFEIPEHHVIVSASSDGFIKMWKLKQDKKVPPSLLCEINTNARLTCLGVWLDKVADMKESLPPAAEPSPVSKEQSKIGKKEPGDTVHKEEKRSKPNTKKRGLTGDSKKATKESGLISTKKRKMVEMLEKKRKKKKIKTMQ", "conditions": "protein PAK1IP1; U3A cells"}, "[11]": {"molecular_target": "proteins of U3A human fibrosarcoma cells (4462 proteins detected) (Homo sapiens, UniProt Q8N4Q1)", "sequence (Q8N4Q1 whole entry)": "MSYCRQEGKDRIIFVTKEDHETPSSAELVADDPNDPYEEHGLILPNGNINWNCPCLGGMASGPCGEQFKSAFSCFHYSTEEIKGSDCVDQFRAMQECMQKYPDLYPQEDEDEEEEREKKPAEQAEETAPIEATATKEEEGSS", "conditions": "protein CHCHD4; soluble abundance after heat, U3A cells"}, "[12]": {"molecular_target": "proteins of U3A human fibrosarcoma cells (4462 proteins detected) (Homo sapiens, UniProt Q9ULU4)", "conditions": "protein ZMYND8; U3A cells"}, "[13]": {"molecular_target": "proteins of U3A human fibrosarcoma cells (4462 proteins detected) (Homo sapiens, UniProt Q15269)", "sequence (Q15269 whole entry)": "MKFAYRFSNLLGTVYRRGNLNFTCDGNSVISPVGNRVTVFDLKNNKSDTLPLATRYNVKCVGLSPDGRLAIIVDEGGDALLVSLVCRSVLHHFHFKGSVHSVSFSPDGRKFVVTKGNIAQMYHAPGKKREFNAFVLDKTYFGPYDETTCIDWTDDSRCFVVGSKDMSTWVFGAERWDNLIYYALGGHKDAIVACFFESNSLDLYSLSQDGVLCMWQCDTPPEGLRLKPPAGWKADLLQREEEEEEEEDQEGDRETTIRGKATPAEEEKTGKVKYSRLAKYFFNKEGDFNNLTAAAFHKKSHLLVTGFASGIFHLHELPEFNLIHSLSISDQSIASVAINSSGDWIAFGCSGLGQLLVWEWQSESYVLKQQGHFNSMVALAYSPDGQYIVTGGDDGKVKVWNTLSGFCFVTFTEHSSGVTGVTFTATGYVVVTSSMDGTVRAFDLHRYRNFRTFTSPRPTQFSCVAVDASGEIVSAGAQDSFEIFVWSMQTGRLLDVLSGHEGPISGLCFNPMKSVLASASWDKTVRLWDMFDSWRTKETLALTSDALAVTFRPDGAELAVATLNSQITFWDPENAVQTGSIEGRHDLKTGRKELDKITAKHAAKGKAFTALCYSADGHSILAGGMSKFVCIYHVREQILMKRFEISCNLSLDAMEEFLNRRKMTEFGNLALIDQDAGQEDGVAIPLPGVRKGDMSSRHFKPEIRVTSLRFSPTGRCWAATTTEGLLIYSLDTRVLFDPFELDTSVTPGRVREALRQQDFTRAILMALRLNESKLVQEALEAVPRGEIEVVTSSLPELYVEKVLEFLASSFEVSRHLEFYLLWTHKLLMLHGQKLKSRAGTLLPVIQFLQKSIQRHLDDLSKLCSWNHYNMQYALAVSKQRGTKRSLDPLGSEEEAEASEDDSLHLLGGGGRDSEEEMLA", "conditions": "protein PWP2; U3A cells"}, "[14]": {"molecular_target": "proteins of U3A human fibrosarcoma cells (4462 proteins detected) (Homo sapiens, UniProt Q9NRZ9)", "conditions": "protein HELLS; soluble abundance after heat, U3A cells"}, "[15]": {"molecular_target": "proteins of U3A human fibrosarcoma cells (4462 proteins detected) (Homo sapiens, UniProt Q96EQ0)", "conditions": "protein SGTB, U3A cells"}, "[16]": {"molecular_target": "proteins of U3A human fibrosarcoma cells (4462 proteins detected) (Homo sapiens, UniProt Q99832)", "conditions": "protein CCT7; U3A cells"}, "[17]": {"molecular_target": "proteins of U3A human fibrosarcoma cells (4462 proteins detected) (Homo sapiens, UniProt Q9H900)", "conditions": "protein ZWILCH; U3A cells"}, "[18]": {"molecular_target": "proteins of U3A human fibrosarcoma cells (4462 proteins detected) (Homo sapiens, UniProt Q8N5G2)", "conditions": "protein TMEM57; U3A cells"}, "[19]": {"molecular_target": "proteins of U3A human fibrosarcoma cells (4462 proteins detected) (Homo sapiens, UniProt O60341)", "conditions": "protein KDM1A; soluble abundance after heat, U3A cells"}, "[20]": {"molecular_target": "proteins of U3A human fibrosarcoma cells (4462 proteins detected) (Homo sapiens, UniProt Q96P48)", "conditions": "protein ARAP1; soluble abundance after heat, U3A cells"}, "[21]": {"molecular_target": "proteins of U3A human fibrosarcoma cells (4462 proteins detected) (Homo sapiens, UniProt P05388)", "conditions": "protein RPLP0; RPLP0P6; U3A cells"}, "[22]": {"molecular_target": "proteins of U3A human fibrosarcoma cells (4462 proteins detected) (Homo sapiens, UniProt Q9BY32)", "conditions": "protein ITPA; soluble abundance after heat, U3A cells"}, "[23]": {"molecular_target": "proteins of U3A human fibrosarcoma cells (4462 proteins detected) (Homo sapiens, UniProt Q9P0K7)", "conditions": "protein RAI14; soluble abundance after heat, U3A cells"}, "[24]": {"molecular_target": "proteins of U3A human fibrosarcoma cells (4462 proteins detected) (Homo sapiens, UniProt P52272)", "conditions": "protein HNRNPM; U3A cells"}, "[25]": {"molecular_target": "proteins of U3A human fibrosarcoma cells (4462 proteins detected) (Homo sapiens, UniProt O00299)", "conditions": "protein CLIC1, U3A cells"}, "[26]": {"molecular_target": "proteins of U3A human fibrosarcoma cells (4462 proteins detected) (Homo sapiens, UniProt P35250)", "conditions": "protein RFC2; U3A cells"}, "[27]": {"molecular_target": "proteins of U3A human fibrosarcoma cells (4462 proteins detected) (Homo sapiens, UniProt Q9UMS4)", "conditions": "protein PRPF19; U3A cells"}, "[28]": {"molecular_target": "proteins of U3A human fibrosarcoma cells (4462 proteins detected) (Homo sapiens, UniProt Q9UIJ7)", "conditions": "protein AK3; U3A cells"}, "[29]": {"molecular_target": "proteins of U3A human fibrosarcoma cells (4462 proteins detected) (Homo sapiens, UniProt O60563)", "conditions": "protein CCNT1; U3A cells"}, "[30]": {"molecular_target": "proteins of U3A human fibrosarcoma cells (4462 proteins detected) (Homo sapiens, UniProt P29353)", "conditions": "protein SHC1; U3A cells"}},
  "data": [
    {"molecule": "CCc1nc(N)nc(N)c1-c1ccc(Cl)cc1", "note": "[pyrimethamine]", "values": [
      {"measurement": "Log2 (PYR/DMSO)", "setting": "[1]", "result": -0.04},
      {"measurement": "Log2 (PYR/DMSO)", "setting": "[2]", "result": 0.18},
      {"measurement": "Log2 (PYR/DMSO)", "setting": "[3]", "result": 0.20},
      {"measurement": "Log2 (PYR/DMSO)", "setting": "[4]", "result": 0.21},
      {"measurement": "Log2 (PYR/DMSO), CCDC134", "setting": "[5]", "result": 0.23},
      {"measurement": "Log2 (PYR/DMSO)", "setting": "[6]", "result": 0.14},
      {"measurement": "Log2 (PYR/DMSO)", "setting": "[7]", "result": -0.05},
      {"measurement": "Log2 (PYR/DMSO), CEP192", "setting": "[8]", "result": -0.22},
      {"measurement": "Log2 (PYR/DMSO)", "setting": "[9]", "result": 0.15},
      {"measurement": "Log2 (PYR/DMSO)", "setting": "[10]", "result": 0.18},
      {"measurement": "Log2 (PYR/DMSO)", "setting": "[11]", "result": 0.14},
      {"measurement": "Log2 (PYR/DMSO)", "setting": "[12]", "result": 0.16},
      {"measurement": "Log2 (PYR/DMSO)", "setting": "[13]", "result": 0.18},
      {"measurement": "Log2 (PYR/DMSO)", "setting": "[14]", "result": 0.14},
      {"measurement": "Log2 (PYR/DMSO)", "setting": "[15]", "result": -0.04},
      {"measurement": "Log2 (PYR/DMSO)", "setting": "[16]", "result": 0.18},
      {"measurement": "Log2 (PYR/DMSO)", "setting": "[17]", "result": 0.22},
      {"measurement": "Log2 (PYR/DMSO)", "setting": "[18]", "result": 0.17},
      {"measurement": "Log2 (PYR/DMSO)", "setting": "[19]", "result": 0.14},
      {"measurement": "Log2 (PYR/DMSO)", "setting": "[20]", "result": 0.14},
      {"measurement": "Log2 (PYR/DMSO)", "setting": "[21]", "result": 0.23},
      {"measurement": "Log2 (PYR/DMSO)", "setting": "[22]", "result": 0.15},
      {"measurement": "Log2 (PYR/DMSO)", "setting": "[23]", "result": 0.15},
      {"measurement": "Log2 (PYR/DMSO)", "setting": "[24]", "result": 0.16},
      {"measurement": "Log2 (PYR/DMSO)", "setting": "[25]", "result": -0.03},
      {"measurement": "Log2 (PYR/DMSO)", "setting": "[26]", "result": 0.17},
      {"measurement": "Log2 (PYR/DMSO)", "setting": "[27]", "result": 0.17},
      {"measurement": "Log2 (PYR/DMSO)", "setting": "[28]", "result": 0.16},
      {"measurement": "Log2 (PYR/DMSO)", "setting": "[29]", "result": 0.18},
      {"measurement": "Log2 (PYR/DMSO)", "setting": "[30]", "result": 0.19}
    ]}
  ]
}
